The test system of the test is CEM cells HIV-1 protection, formazan growth assay. The test is described as follows: NCI AIDS Antiviral Assay. Particulars: for IC50: measured here: growth of uninfected CEM cells. The procedure, abridged: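 Five concentrations of each compound were applied to infected and uninfected human CEM cells. Protection from HIV-1 was judged from growth measured with a soluble formazan assay.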

Broadly, the EC50 is the concentration giving half of the maximal effect. As a reminder, the IC50 is the concentration at which inhibition is half-maximal. Higher therefore signals lower potency.

Calls of active or inactive are those of the source.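 Rule for the calls: active = compounds giving half or more protection of infected cells from virus-caused growth loss, again on retest; inactive = the rest.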 Some results are limits rather than exact numbers.

On to `O=C1CN2Cc3c(sc4c3CCCC4)N=C2N1`, for which the EC50 was > 200 µM and the IC50 came to 138 µM.

For the molecule `O=C(CCCn1cnc([N+](=O)[O-])n1)NCCCn1ccnc1[N+](=O)[O-]`, the EC50 is > 200 µM and the IC50 is > 200 µM.

Take `C[C@H](Nc1nc(N)c(N=O)c(=O)n1C)C(=O)O`: the EC50 is > 200 µM and the IC50 was > 200 µM.

On to `O=S1(=O)C(c2cccc(C(F)(F)F)c2)=C(O)c2cc3ccccc3nc21`, for which the result was inactive.

Regarding `O=C(O)c1cccc(C(=O)O)c1-c1c(C(=O)O)cccc1C(=O)O`, the EC50 is > 200 µM and the IC50 is > 200 µM.

With `O=C(CC(=O)Nc1ccccc1Cl)NNC(c1cc(N=Nc2ccc(Br)cc2)ccc1O)P(O)O` (configuration not stated), the EC50 is > 100 µM and the IC50 was determined as 1.32 µM.

Take `Cc1ccc(Nc2cc(=O)[nH]c(=O)[nH]2)cc1CS`: the EC50 was > 200 µM and the IC50 was 93.3 µM.

`CO[C@H]1SC[C@H](OC(C)=O)[C@H](OC(C)=O)[C@H]1OC(C)=O`: the EC50 was > 200 µM and the IC50 was > 200 µM.

As to `O=C(OCCc1ccccc1)c1ccc2cc(O)c(O)cc2c1`, the EC50 is > 31.6 µM and the IC50 was 12.9 µM.

As for `CCN(CC)c1ccc(NC(=S)NN)cc1`, the EC50 is > 200 µM and the IC50 came to 11.2 µM.

`C/C(=N\NC(N)=O)C(CN(C)C)C(c1ccccc1)c1c(O)c2ccccc2oc1=O` (configuration not stated): the EC50 was > 91.2 µM and the IC50 is 66.1 µM.

With `CC(SSc1ccc(C(C)(C)C)cc1)c1ccccc1` (configuration not stated), the EC50 is > 200 µM and the IC50 came out at 8.51 µM.

As for `CC(C)CCCC(C)[C@H]1CC[C@@H]2[C@H]3CC[C@H]4C[C@@H](CCC=C(c5cc(Cl)c(OCc6ccccc6[N+](=O)[O-])c(C(=O)OCc6ccccc6[N+](=O)[O-])c5)c5cc(Cl)c(OCc6ccccc6[N+](=O)[O-])c(C(=O)OCc6ccccc6[N+](=O)[O-])c5)CC[C@]4(C)[C@@H]3CC[C@]12C` (some centres not stated), the EC50 was 112 µM and the IC50 is > 200 µM.

For `CC(=O)C1CC=C(C)CC1` (configuration not stated), the EC50 was > 1820 µM and the IC50 is 141 µM.

Take `CC1OC(=O)C(O)=C1O` (configuration not stated): the outcome was inactive.

For the molecule `CC(C)(C)N/N=C(\C(=O)Nc1nc(=S)[nH][nH]1)C1C(=O)Nc2ccccc2S1=O` (configuration not stated), the outcome was inactive.

For `COCn1c(=O)n(C)c(=O)c2c1nc1c(c(=O)n(C)c(=O)n1COC)[n+]2[O-]`, the EC50 was > 200 µM and the IC50 came out at 5.25 µM.

Turning to `CCOC(=O)CC1CCN(C(=O)c2ccccc2)C2Cc3c([nH]c4ccccc34)C12C[N+](=O)[O-]` (configuration not stated), the EC50 was > 200 µM and the IC50 was found to be 85.1 µM.

In the case of `CCC1CCN=C(Cn2cc(C)c(=O)[nH]c2=O)N1` (configuration not stated), the EC50 is > 200 µM and the IC50 was > 200 µM.

Regarding `Nc1c(Cl)cc(Cl)cc1C(=O)O`, the EC50 was > 200 µM and the IC50 is 195 µM.

For the molecule `O=c1c(O)c(-c2ccc(O)cc2O)oc2cc(O)cc(O)c12`, the result was inactive.

As for `N[C@@H](CSSc1ccccc1C(=O)O)C(=O)O`, the EC50 is > 200 µM and the IC50 was > 200 µM.

Regarding `COC(=O)C1=C(C(=O)OC)SC(C(C(=O)OC)=C2SC3=C(CCCC3)S2)S1`, the outcome was inactive.

Take `CC1(C)OC(=O)C=C[C@@]2(C)C1CC(=O)C1(C)C2CCC2(C)C(c3ccoc3)OC(=O)[C@H]3O[C@]321` (some centres not stated): the EC50 was > 200 µM and the IC50 was > 200 µM.

On to `Cc1c(N)nc(C(CC(N)=O)NCC(N)C(N)=O)nc1C(=O)NC(C(=O)NC(C)C(O)C(C)C(=O)NC(C(=O)NCCc1nc(-c2nc(C(=O)NCCCNCCCCN)cs2)cs1)C(C)O)C(OC1OC(CO)C(O)C(O)C1OC1OC(CO)C(O)C(OC(N)=O)C1O)c1cnc[nH]1` (configuration not stated), for which the outcome was inactive.

Regarding `CCCCC(CC)COS(=O)(=O)O` (configuration not stated), the EC50 was 145 µM and the IC50 was > 200 µM.

For `COc1cc2c[n+](C)c3c(c2cc1OC)Cc1cc2c(cc1-3)OCO2`, the EC50 is > 19.5 µM and the 50% inhibitory concentration (IC50) is > 19.5 µM.

Turning to `COc1cc(C[C@H]2C(=O)OCC2Cc2ccc(OC)c(OC)c2)ccc1O` (some centres not stated), the EC50 is > 200 µM and the IC50 was 5.5 µM.

With `O=C1OCC/C1=C\c1ccc(O)cc1`, the EC50 was > 1320 µM and the IC50 came to 240 µM.

`COC(=O)C(Cc1c[nH]c2ccccc12)NP(=O)(O)OCC1OC(n2cc(Br)c(=O)[nH]c2=O)CC1O` (configuration not stated): the EC50 is > 200 µM and the IC50 was > 200 µM.

Regarding `O=C(O)c1[nH][nH]c(=O)c1N=Nc1ccc(/C=C/c2ccc(N=Nc3c(C(=O)O)[nH][nH]c3=O)cc2S(=O)(=O)O)c(S(=O)(=O)O)c1`, the EC50 was > 200 µM and the IC50 is > 200 µM.

As to `CC(CCC(=O)O)(c1ccc(O)c(CN(c2ccccc2)c2ccccc2)c1)c1ccc(O)c(CN(c2ccccc2)c2ccccc2)c1`, the outcome was inactive.

Take `Cc1nc(N)c(N2CCNCC2)c(=O)[nH]1`: the EC50 was > 200 µM and the IC50 is > 200 µM.

As for `CCCCCCCCCCCCCCCC[N+]1(C)CC2CCCCC2C1` (configuration not stated), the EC50 is > 2 µM and the IC50 is 0.55 µM.

Take `OC1COc2ccc(Cl)cc2CSC1` (configuration not stated): the EC50 is > 200 µM and the half-inhibitory concentration (IC50) came out at 166 µM.

For the molecule `CCCCCC(=O)OC1CN2CC[C@H](O)C2C(O)[C@@H]1O` (some centres not stated), the result was inactive.

Consider `c1ccc(N2CCN(CCN3CCc4c([nH]c5ccccc45)C3c3cccnc3)CC2)cc1` (configuration not stated), for which the EC50 was > 2.4 µM and the IC50 is > 2.4 µM.

Consider `CC1(C)c2ccccc2C(C)(C)C(C(=O)Nc2ccccc2)C1C(=O)O` (configuration not stated), for which the outcome was inactive.

On to `N#C/C1=C(\C#N)N=Cc2ccccc2NCCNc2ccccc2C=N1`, for which the EC50 is > 200 µM and the IC50 is > 200 µM.

On to `CC1(C)Cc2cc(C(=O)O)c3c(c2C1=O)COCC3`, for which the outcome was inactive.

As for `O=C(O)CN1CCNCCN(CC(=O)O)CCN(CC(=O)O)CCNCC1`, the EC50 was > 200 µM and the IC50 stood at 178 µM.

Take `CCCCCCCC(=O)OCC1OC(n2cc(F)c(=O)[nH]c2=O)C(N)C(O)C1O` (configuration not stated): the EC50 was > 309 µM and the IC50 is > 309 µM.

Turning to `COC(=O)CN1Cc2cc(C)cc(c2O)CN(CC(=O)OC)Cc2cc(C)cc(c2O)CN(CC(=O)OC)Cc2cc(C)cc(c2O)C1`, the EC50 is > 200 µM and the 50% inhibitory concentration (IC50) stood at 19.5 µM.

On to `CC(=O)OC[C@]12[C@H](OC(C)=O)[C@H](OC(C)=O)[C@@H]3C(O)[C@@]14OC3(C)COC(=O)c1cccnc1CCC(C)C(=O)OC([C@H](OC(C)=O)[C@@H]2OC(=O)c1ccccc1)[C@]4(C)O` (some centres not stated), for which the EC50 is > 30.2 µM and the IC50 was > 30.2 µM.

For the molecule `COc1ccc(/C=C2\SC(=S)N(/C=C(/C#N)C(=O)c3ccc4ccccc4c3)C2=O)cc1OC`, the EC50 is > 200 µM and the IC50 came out at 11.7 µM.

As for `CC(=O)O[C@H]1C[C@H]2[C@@H](OC(C)=O)/C=C3\C[C@](C)(C(=O)[C@H](O)C(=C1C)C2(C)C)[C@@H](O)C[C@@H]3OC(=O)[C@H](O)[C@H](c1ccccc1)N(C)C`, the EC50 was > 200 µM and the IC50 is > 200 µM.

In the case of `O=C(Nc1ccc2[nH]c(=S)sc2c1)Nc1ccccc1F`, the EC50 is > 200 µM and the IC50 was 33.1 µM.

For `CCCC(=O)OC(C(Cl)(Cl)Cl)P(=O)(OC)OC` (configuration not stated), the EC50 was > 200 µM and the half-inhibitory concentration (IC50) amounted to 30.9 µM.

As to `Cc1cn(C2CC(N=C(N)NO)C(CO)O2)c(=O)[nH]c1=O` (configuration not stated), the EC50 is > 5250 µM and the IC50 turned out to be 708 µM.

As to `CCOP(=O)(/C=C/c1ccccc1)OCC`, the result was inactive.

On to `N#CC(/C(=N/N=C(N)N)C(=O)Nc1ccccc1[N+](=O)[O-])c1nc(-c2ccc([N+](=O)[O-])cc2)cs1` (configuration not stated), for which the EC50 is > 27.5 µM and the IC50 is > 27.5 µM.

In the case of `Cc1oc2cc(O)ccc2c(=O)c1-c1ccccc1Br`, the EC50 is > 200 µM and the IC50 is 16.6 µM.

On to `CCN(CC)C(=O)C1(C)NS(=O)(=O)c2ccccc2C1=O` (configuration not stated), for which the EC50 is > 200 µM and the IC50 is > 200 µM.

Consider `CC(C)c1ccc(Cc2ccc(C(C)C)c(NC(=O)C(=O)Cc3cnc4ccccc4n3)c2C(C)C)c(C(C)C)c1NC(=O)C(=O)Cc1cnc2ccccc2n1`, for which the EC50 is > 13.2 µM and the IC50 was > 13.2 µM.

On to `O=[N+]([O-])c1cccc(S(=O)(=O)N2CCCC2)c1`, for which the EC50 is > 200 µM and the IC50 amounted to 166 µM.

Turning to `O=S(=O)(Cc1ccccc1)SCc1ccccc1`, the EC50 was > 79.4 µM and the IC50 was 6.31 µM.

Turning to `COc1cc(C(=O)C(CO)Oc2ccccc2OC)ccc1O` (configuration not stated), the EC50 was > 794 µM and the IC50 was determined as 123 µM.

For `[Cl][Ho]([Cl])[Cl]`, the EC50 is > 162 µM and the IC50 was > 162 µM.

As to `CCOC(=O)/C(=C/c1ccncc1)C(=O)c1ccccc1`, the EC50 is > 129 µM and the IC50 was > 129 µM.

For `CNC(=O)CCCNC(=O)CCCC(=O)N(C)C`, the EC50 is > 200 µM and the IC50 is > 200 µM.

As to `O=C1C2=C(CC3=C(C2)CS(=O)(=O)C3)C(=O)C2=C1CC1=C(C2)CS(=O)(=O)C1`, the EC50 was > 200 µM and the IC50 turned out to be 6.03 µM.

Regarding `O=C1CCC[C@]2(C1)Cc1ccccc1N2`, the EC50 was > 468 µM and the IC50 stood at 288 µM.

Take `COC(=O)c1[nH]cnc1O`: the EC50 is > 200 µM and the IC50 is > 200 µM.

Consider `CCOC(=O)C(=O)Nc1c(CC)cccc1C(C)CC` (configuration not stated), for which the EC50 is > 646 µM and the IC50 was > 646 µM.

`CCOC(=O)[C@@H]1OC(c2ccccc2)O[C@H]1C(=O)OCC`: the EC50 was > 200 µM and the IC50 is > 200 µM.

With `Cc1cccc(C(=O)c2ccccc2)c1C(=O)O`, the EC50 was > 200 µM and the concentration for half-maximal inhibition (IC50) is > 200 µM.

As for `CC1=C(C(=O)Nc2ccc([N+](=O)[O-])cc2)C(c2ccco2)C(C(=O)Nc2ccc([N+](=O)[O-])cc2)=C(C)N1`, the EC50 was > 19.5 µM and the IC50 worked out at 11 µM.

For `C=CCOCn1cc(C)c(=O)[nH]c1=O`, the EC50 was > 200 µM and the IC50 is > 200 µM.

With `Cc1ccc(S(=O)(=O)N2CCn3ncc(C#N)c32)cc1`, the EC50 was > 186 µM and the IC50 was > 186 µM.

For the origin of these results see PubChem BioAssay AID179 (DTP/NCI, 2004).
